Laboratory results as given in US8541460B2, “PDK-1/Akt signaling inhibitors” (The Ohio State University, priority 2003, dated 2013).

Assays:
Type in all cases: cell-based
[1] = tested on: SR; test: NCI DTP cell line screen (SRB), Leukemia
Description: (§1) Screening of compounds 70 and 71 against several cancer cell lines The human tumor cell lines of the cancer screening panel are grown in RPMI 1640 medium containing 5% fetal bovine serum and 2 mM L-glutamine. For a typical screening experiment, cells are inoculated into 96 well microtiter plates in 100 μL at plating densities ranging from 5,000 to 40,000 cells/well depending on the doubling time of individual cell lines. After cell inoculation, the microtiter plates are incubated at 37° C., 5% CO2, 95% air and 100% relative humidity for 24 h prior to addition of experimental drugs.
(§2) After 24 h, two plates of each cell line are fixed in situ with TCA, to represent a measurement of the cell population for each cell line at the time of drug addition (Tz). Experimental drugs are solubilized in dimethyl sulfoxide at 400-fold the desired final maximum test concentration and stored frozen prior to use. At the time of drug addition, an aliquot of frozen concentrate is thawed and diluted to twice the desired final maximum test concentration with complete medium containing 50 μg/ml gentamicin. Additional four, 10-fold or ½ log serial dilutions are made to provide a total of five drug concentrations plus control. Aliquots of 100 μl of these different drug dilutions are added to the appropriate microtiter wells already containing 100 μl of medium, resulting in the required final drug concentrations.
(§3) Following drug addition, the plates are incubated for an additional 48 h at 37° C., 5% CO2, 95% air, and 100% relative humidity. For adherent cells, the assay is terminated by the addition of cold TCA. Cells are fixed in situ by the gentle addition of 50 μl of cold 50% (w/v) TCA (final concentration, 10% TCA) and incubated for 60 minutes at 4° C. The supernatant is discarded, and the plates are washed five times with tap water and air dried. Sulforhodamine B (SRB) solution (100 μl) at 0.4% (w/v) in 1% acetic acid is added to each well, and plates are incubated for 10 minutes at room temperature. After staining, unbound dye is removed by washing five times with 1% acetic acid and the plates are air dried. Bound stain is subsequently solubilized with 10 mM trizma base, and the absorbance is read on an automated plate reader at a wavelength of 515 nm. For suspension cells, the methodology is the same except that the assay is terminated by fixing settled cells at the bottom of the wells by gently adding 50 μl of 80% TCA (final concentration, 16% TCA). Using the seven absorbance measurements [time zero, (Tz), control growth, (C), and test growth in the presence of drug at the five concentration levels (Ti)], the percentage growth is calculated at each of the drug concentrations levels. Percentage growth inhibition is calculated as: [(Ti−Tz)/(C−Tz)]×100 for concentrations for which Ti>/=Tz [(Ti−Tz)/Tz]×100 for concentrations for which Ti<Tz
(§4) Three dose response parameters are calculated for each experimental agent. […] The drug concentration resulting in total growth inhibition (TGI) is calculated from Ti=Tz. […] Values are calculated for each of these three parameters if the level of activity is reached; however, if the effect is not reached or is exceeded, the value for that parameter is expressed as greater or less than the maximum or minimum concentration tested.
(§5) The methods described were used to test compounds 70 and 71 on a panel of sixty cell lines under a screening service provided by the Developmental Therapeutics Program at the National Institutes of Health. Shown in FIG. 1C are 1, RPMI-8226 leukemia cells; 2; NCI-H322M non-small cell lung cancer cells; 3, HT29 colon cancer cells; 4, U251 CNS cancer cells; 5, SK-MEL-28 melanoma cancer cells; 6, SK-OV-3 ovarian cancer cells; 7, RXF 393 renal cancer cells; 8, PC-3 prostate cancer cells; 9, MDA-MB-231 breast cancer cells.

[2] = tested on: K-562; test: NCI DTP cell line screen (SRB), Leukemia
Description: as §1, §2, §3, §4, §5

[3] = tested on: MOLT-4; test: NCI DTP cell line screen (SRB), Leukemia
Description: as §1, §2, §3, §4, §5

[4] = tested on: OVCAR-3; test: NCI DTP cell line screen (SRB), Ovarian Cancer
Description: as §1, §2, §3, §4, §5

[5] = tested on: IGROV1; test: NCI DTP cell line screen (SRB), Ovarian Cancer
Description: as §1, §2, §3, §4, §5

[6] = tested on: OVCAR-5; test: NCI DTP cell line screen (SRB), Ovarian Cancer
Description: as §1, §2, §3, §4, §5

[7] = tested on: OVCAR-8; test: NCI DTP cell line screen (SRB), Ovarian Cancer; conditions: OVCAR 8
Description: as §1, §2, §3, §4, §5

[8] = tested on: OVCAR-4; test: NCI DTP cell line screen (SRB), Ovarian Cancer
Description: as §1, §2, §3, §4, §5

[9] = read-out: LC50 (the source's name)

## N=C(N)Nc1ccc(-n2nc(C(F)(F)F)cc2-c2ccc3c(ccc4ccccc43)c2)cc1 [Compound 71, 4-[5-(2-Phenanthrenyl)-3-(trifluoromethyl)-1H-pyrazol-1-yl]-phenyl-guanidine]
[1]
  GI50: 0.0386 µM
  TGI: 3.79E−07
[1]; Log10 Concentration −4.0
  Mean Optical Densities: 0.287
  Percent Growth: −21%
[1]; Log10 Concentration −5.0
  Mean Optical Densities: 0.234
  Percent Growth: −36%
[1]; Log10 Concentration −6.0
  Mean Optical Densities: 0.254
  Percent Growth: −30%
[1]; Log10 Concentration −7.0
  Mean Optical Densities: 0.583
  Percent Growth: 42%
[1]; Log10 Concentration −8.0
  Mean Optical Densities: 0.688
  Percent Growth: 62%
[1]; [9]
  CC50: > 100 µM
[2]
  GI50: 0.326 µM
  TGI: 1.52E−06
[2]; Log10 Concentration −4.0
  Mean Optical Densities: 0.119
  Percent Growth: −60%
[2]; Log10 Concentration −5.0
  Mean Optical Densities: 0.126
  Percent Growth: −58%
[2]; Log10 Concentration −6.0
  Mean Optical Densities: 0.438
  Percent Growth: 13%
[2]; Log10 Concentration −7.0
  Mean Optical Densities: 1.283
  Percent Growth: 89%
[2]; Log10 Concentration −8.0
  Mean Optical Densities: 1.338
  Percent Growth: 94%
[2]; [9]
  CC50: 7.77 µM
[3]
  GI50: 0.233 µM
  TGI: 1.98E−06
[3]; Log10 Concentration −4.0
  Mean Optical Densities: 0.143
  Percent Growth: −54%
[3]; Log10 Concentration −5.0
  Mean Optical Densities: 0.143
  Percent Growth: −54%
[3]; Log10 Concentration −6.0
  Mean Optical Densities: 0.461
  Percent Growth: 23%
[3]; Log10 Concentration −7.0
  Mean Optical Densities: 0.736
  Percent Growth: 66%
[3]; Log10 Concentration −8.0
  Mean Optical Densities: 0.833
  Percent Growth: 81%
[3]; [9]
  CC50: 8.75 µM
[4]
  GI50: 1.4 µM
  TGI: 2.70E−06
[4]; Log10 Concentration −4.0
  Mean Optical Densities: 0.131
  Percent Growth: −72%
[4]; Log10 Concentration −5.0
  Mean Optical Densities: −0.043
  Percent Growth: −100%
[4]; Log10 Concentration −6.0
  Mean Optical Densities: 0.770
  Percent Growth: 76%
[4]; Log10 Concentration −7.0
  Mean Optical Densities: 0.792
  Percent Growth: 81%
[4]; Log10 Concentration −8.0
  Mean Optical Densities: 0.833
  Percent Growth: 91%
[4]; [9]
  CC50: 5.2 µM
[5]
  GI50: 1.07 µM
  TGI: 2.26E−06
[5]; Log10 Concentration −4.0
  Mean Optical Densities: 0.216
  Percent Growth: −53%
[5]; Log10 Concentration −5.0
  Mean Optical Densities: −0.039
  Percent Growth: −100%
[5]; Log10 Concentration −6.0
  Mean Optical Densities: 0.806
  Percent Growth: 55%
[5]; Log10 Concentration −7.0
  Mean Optical Densities: 0.983
  Percent Growth: 83%
[5]; Log10 Concentration −8.0
  Mean Optical Densities: 0.997
  Percent Growth: 85%
[5]; [9]
  CC50: 4.75 µM
[6]
  GI50: 1.73 µM
  TGI: 3.11E−06
[6]; Log10 Concentration −4.0
  Mean Optical Densities: 0.474
  Percent Growth: −8%
[6]; Log10 Concentration −5.0
  Mean Optical Densities: −0.033
  Percent Growth: −100%
[6]; Log10 Concentration −6.0
  Mean Optical Densities: 1.559
  Percent Growth: 97%
[6]; Log10 Concentration −7.0
  Mean Optical Densities: 1.437
  Percent Growth: 86%
[6]; Log10 Concentration −8.0
  Mean Optical Densities: 1.538
  Percent Growth: 95%
[7]
  GI50: 1.69 µM
  TGI: 3.05E−06
[7]; Log10 Concentration −4.0
  Mean Optical Densities: 0.126
  Percent Growth: −69%
[7]; Log10 Concentration −5.0
  Mean Optical Densities: −0.001
  Percent Growth: −100%
[7]; Log10 Concentration −6.0
  Mean Optical Densities: 0.934
  Percent Growth: 94%
[7]; Log10 Concentration −7.0
  Mean Optical Densities: 0.946
  Percent Growth: 96%
[7]; Log10 Concentration −8.0
  Mean Optical Densities: 0.923
  Percent Growth: 92%
[7]; [9]
  CC50: 5.52 µM
[8]
  GI50: 1.31 µM
  TGI: 2.58E−06
[8]; Log10 Concentration −4.0
  Mean Optical Densities: 0.179
  Percent Growth: −66%
[8]; Log10 Concentration −5.0
  Mean Optical Densities: −0.001
  Percent Growth: −100%
[8]; Log10 Concentration −6.0
  Mean Optical Densities: 0.945
  Percent Growth: 70%
[8]; Log10 Concentration −7.0
  Mean Optical Densities: 0.999
  Percent Growth: 79%
[8]; Log10 Concentration −8.0
  Mean Optical Densities: 1.011
  Percent Growth: 81%
[8]; [9]
  CC50: 5.08 µM
